Data taken from patent US6369069B1 (Aventis Pharma Deutschland GmbH, priority 1998, dated 2002).

Assays:
[1] = test system: Na^+-dependent Cl^−/HCO3^− exchanger (NCBE); assay: Inhibition of the Na+-dependent Cl−/HCO3− exchanger (NCBE) in human endothelial cells (pHi recovery, BCECF fluorescence, FLIPR); format: cell-based; conditions: 10 μM compound; human endothelial cells (ECV-304); related to 100% and 0% pHi recovery controls
Summary of the method: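 ECV-304 cells loaded with 5 μM BCECF-AM in NH4Cl-containing saline, then placed in Na+/HCO3−-free buffer to acidify. pHi recovery started with Na+/HCO3− buffer (50 μM HOE 642) plus compound at various concentrations. Fluorescence kinetics over 2 min at 35 °C, normalised to 100% and 0% (HCO3−-free) controls.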

| SMILES | melting point | Residual activity of the NCBE at 10 μM [1] [%] |
| --- | --- | --- |
| N#CNS(=O)(=O)c1ccccc1-c1ccc(CN(Cc2ccccc2)C(=O)Cc2ccccc2C(F)(F)F)cc1 [Example 562, 4′-{[Benzyl-2-(2-trifluoromethylphenyl)acetylamino]methyl}biphenyl-2-sulfonylcyanamide] | 90 °C (dec.) | 33 |
| N#CNS(=O)(=O)c1ccccc1-c1ccc(CN(Cc2ccccc2)C(=O)Cc2ccccc2OC(F)(F)F)cc1 [Example 563, 4′-{[Benzyl-2-(2-trifluoromethoxyphenyl)acetylamino]methyl}biphenyl-2-sulfonylcyanamide] | 125 °C (dec.) | 46 |

More lines, main results first:

| melting point | SMILES | Residual activity of the NCBE at 10 μM [1] [%] |
| --- | --- | --- |
| 173 °C (dec.) | Cc1ccccc1C(=O)N(Cc1ccccc1)Cc1ccc(-c2ccccc2S(=O)(=O)NC#N)cc1 [Example 565, 4′-{[Benzyl-2-methylbenzoylamino]methyl}biphenyl-2-sulfonylcyanamide] | 42 |
| 166 °C (dec.) | Cc1ccc(C(=O)N(Cc2ccccc2)Cc2ccc(-c3ccccc3S(=O)(=O)NC#N)cc2)s1 [Example 568, 4′-{[Benzyl-(5-methylthiophen-2-yl)carbonylamino]methyl}biphenyl-2-sulfonylcyanamide] | 70 |
| 165 °C (dec.) | N#CNS(=O)(=O)c1ccccc1-c1ccc(CN(Cc2ccccc2)C(=O)c2ccccc2C(F)(F)F)cc1 [Example 566, 4′-{[Benzyl-2-trifluoromethylbenzoylamino]methyl}biphenyl-2-sulfonylcyanamide] | 72 |
